Tested on: 439559-082-T-J2-PDC spheroids viability
Test: Anticancer human tumor 439559-082-T-J2-PDC patient-derived colon adenocarcinoma cell line growth inhibition [GQUAD]
Settings: for IC50: curve of first compound; for viability, T/C: stronger effect = lower value
Procedure, shortened: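 Multi-cell-type spheroids of tumor cells with HUVEC and mesenchymal stem cells, treated with drug combinations. Concentrations descend in half-log steps from near clinical Cmax, or from 10 microM where Cmax is unknown; viability read-out.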

[1] = second compound 0.0316 µM, first compound 0.0316 µM
[2] = second compound 0.0316 µM, first compound 0.1 µM
[3] = second compound 0.0316 µM, first compound 0.316 µM
[4] = second compound 0.0316 µM, first compound 1 µM
[5] = second compound 0.0316 µM, first compound 3.16 µM
[6] = second compound 0.0316 µM, first compound 10 µM
[7] = second compound 0.1 µM, first compound 0.0316 µM
[8] = second compound 0.1 µM, first compound 0.1 µM
[9] = second compound 0.1 µM, first compound 0.316 µM
[10] = second compound 0.1 µM, first compound 1 µM
[11] = second compound 0.1 µM, first compound 3.16 µM
[12] = second compound 0.1 µM, first compound 10 µM
[13] = second compound 0.316 µM, first compound 0.0316 µM
[14] = second compound 0.316 µM, first compound 0.1 µM
[15] = second compound 0.316 µM, first compound 0.316 µM
[16] = second compound 0.316 µM, first compound 1 µM
[17] = second compound 0.316 µM, first compound 3.16 µM
[18] = second compound 0.316 µM, first compound 10 µM
[19] = second compound 1 µM, first compound 0.0316 µM
[20] = second compound 1 µM, first compound 0.1 µM
[21] = second compound 1 µM, first compound 0.316 µM
[22] = second compound 1 µM, first compound 1 µM
[23] = second compound 1 µM, first compound 3.16 µM
[24] = second compound 1 µM, first compound 10 µM
[25] = second compound 3.16 µM, first compound 0.0316 µM
[26] = second compound 3.16 µM, first compound 0.1 µM
[27] = second compound 3.16 µM, first compound 0.316 µM
[28] = second compound 3.16 µM, first compound 1 µM
[29] = second compound 3.16 µM, first compound 3.16 µM
[30] = second compound 3.16 µM, first compound 10 µM
[31] = second compound 10 µM, first compound 0.0316 µM
[32] = second compound 10 µM, first compound 0.1 µM
[33] = second compound 10 µM, first compound 0.316 µM
[34] = second compound 10 µM, first compound 1 µM
[35] = second compound 10 µM, first compound 3.16 µM
[36] = second compound 10 µM, first compound 10 µM
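Also: spheroids exposed to the agents for 7 days before readout.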
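For viability, T/C in this document: percent of luminescence signal in DMSO vehicle wells taken as 100% viability.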

Question: `CC(C)(O)C1CCC(Nc2ccc3ncc(-c4cccc(C(F)(F)F)c4)n3n2)CC1` (stereo unspecified) + CN(C)c1ccc(Nc2c3ccc(NC(=O)CCN4CCCC4)cc3nc3cc(NC(=O)CCN4CCCC4)ccc23)cc1 was tested. Which IC50 (second compound 0.0316 µM) did it give?
Answer: 1.6 µM

Question: What about the IC50 (second compound 0.1 µM) of the same compound?
Answer: 1.65 µM

Question: And the IC50 (second compound 0.316 µM)?
Answer: 1.82 µM

Question: What about the IC50 (second compound 1 µM) of the same compound?
Answer: 1.66 µM

Question: What about the IC50 (second compound 3.16 µM) of the same compound?
Answer: 1.78 µM

Question: And the IC50 (second compound 10 µM)?
Answer: 1.58 µM

Question: What about the viability, T/C [1] of the same compound?
Answer: 92.7%

Question: What about the viability, T/C [2] of the same compound?
Answer: 94.7%

Question: And the viability, T/C [3]?
Answer: 94%

Question: And the viability, T/C [4]?
Answer: 78.1%

Question: And the viability, T/C [5]?
Answer: 8.9%

Question: What about the viability, T/C [6] of the same compound?
Answer: 9%

Question: And the viability, T/C [7]?
Answer: 117%

Question: And the viability, T/C [8]?
Answer: 111%

Question: And the viability, T/C [9]?
Answer: 108%

Question: And the viability, T/C [10]?
Answer: 77.5%

Question: What about the viability, T/C [11] of the same compound?
Answer: 13.9%

Question: And the viability, T/C [12]?
Answer: 10.1%

Question: And the viability, T/C [13]?
Answer: 104%

Question: What about the viability, T/C [14] of the same compound?
Answer: 96.9%

Question: What about the viability, T/C [15] of the same compound?
Answer: 91.8%

Question: And the viability, T/C [16]?
Answer: 90.3%

Question: What about the viability, T/C [17] of the same compound?
Answer: 12.7%

Question: What about the viability, T/C [18] of the same compound?
Answer: 10.6%

Question: What about the viability, T/C [19] of the same compound?
Answer: 98.8%

Question: And the viability, T/C [20]?
Answer: 101%

Question: And the viability, T/C [21]?
Answer: 107%

Question: And the viability, T/C [22]?
Answer: 82.1%

Question: What about the viability, T/C [23] of the same compound?
Answer: 7.17%

Question: What about the viability, T/C [24] of the same compound?
Answer: 11.9%

Question: And the viability, T/C [25]?
Answer: 98.8%

Question: What about the viability, T/C [26] of the same compound?
Answer: 101%

Question: And the viability, T/C [27]?
Answer: 103%

Question: What about the viability, T/C [28] of the same compound?
Answer: 89%

Question: And the viability, T/C [29]?
Answer: 7.84%

Question: And the viability, T/C [30]?
Answer: 13.6%

Question: What about the viability, T/C [31] of the same compound?
Answer: 100%

Question: What about the viability, T/C [32] of the same compound?
Answer: 110%

Question: What about the viability, T/C [33] of the same compound?
Answer: 109%

Question: And the viability, T/C [34]?
Answer: 77.1%

Question: What about the viability, T/C [35] of the same compound?
Answer: 9.39%

Question: What about the viability, T/C [36] of the same compound?
Answer: 7.34%

Question: What does the source list for `Cc1[nH]c2ccccc2c1CCNCc1ccc(/C=C/C(=O)NO)cc1` + CN(C)c1ccc(Nc2c3ccc(NC(=O)CCN4CCCC4)cc3nc3cc(NC(=O)CCN4CCCC4)ccc23)cc1?
Answer: IC50 (second compound 0.0316 µM): > 0.316 µM; IC50 (second compound 0.1 µM): > 0.316 µM; IC50 (second compound 0.316 µM): > 0.316 µM; IC50 (second compound 1 µM): > 0.316 µM; IC50 (second compound 3.16 µM): > 0.316 µM; IC50 (second compound 10 µM): > 0.316 µM; viability, T/C (second compound 0.0316 µM, first compound 0.000999 µM): 105%; viability, T/C (second compound 0.0316 µM, first compound 0.00316 µM): 86.9%; viability, T/C (second compound 0.0316 µM, first compound 0.00999 µM): 91.8%; viability, T/C [1]: 87.3%; viability, T/C (second compound 0.0316 µM, first compound 0.0999 µM): 84.7%; viability, T/C [3]: 63.6%; viability, T/C (second compound 0.1 µM, first compound 0.000999 µM): 110%; viability, T/C (second compound 0.1 µM, first compound 0.00316 µM): 102%; viability, T/C (second compound 0.1 µM, first compound 0.00999 µM): 101%; viability, T/C [7]: 83.9%; viability, T/C (second compound 0.1 µM, first compound 0.0999 µM): 83.8%; viability, T/C [9]: 60.9%; viability, T/C (second compound 0.316 µM, first compound 0.000999 µM): 93.6%; viability, T/C (second compound 0.316 µM, first compound 0.00316 µM): 91.3%; viability, T/C (second compound 0.316 µM, first compound 0.00999 µM): 85.5%; viability, T/C [13]: 76.4%; viability, T/C (second compound 0.316 µM, first compound 0.0999 µM): 80%; viability, T/C [15]: 62.3%; viability, T/C (second compound 1 µM, first compound 0.000999 µM): 99.1%; viability, T/C (second compound 1 µM, first compound 0.00316 µM): 99.1%; viability, T/C (second compound 1 µM, first compound 0.00999 µM): 99.9%; viability, T/C [19]: 86.9%; viability, T/C (second compound 1 µM, first compound 0.0999 µM): 78.5%; viability, T/C [21]: 64.1%; viability, T/C (second compound 3.16 µM, first compound 0.000999 µM): 93.8%; viability, T/C (second compound 3.16 µM, first compound 0.00316 µM): 89.4%; viability, T/C (second compound 3.16 µM, first compound 0.00999 µM): 88.5%; viability, T/C [25]: 79.2%; viability, T/C (second compound 3.16 µM, first compound 0.0999 µM): 75.3%; viability, T/C [27]: 60.8%; viability, T/C (second compound 10 µM, first compound 0.000999 µM): 96.1%; viability, T/C (second compound 10 µM, first compound 0.00316 µM): 95.7%; viability, T/C (second compound 10 µM, first compound 0.00999 µM): 97.9%; viability, T/C [31]: 84.7%; viability, T/C (second compound 10 µM, first compound 0.0999 µM): 83%; viability, T/C [33]: 68.9%

Question: For `O=C(NO)c1cnc(N2CCN(S(=O)(=O)c3ccc4ccccc4c3)CC2)nc1` + CN(C)c1ccc(Nc2c3ccc(NC(=O)CCN4CCCC4)cc3nc3cc(NC(=O)CCN4CCCC4)ccc23)cc1, which IC50 (second compound 0.0316 µM) is on record?
Answer: 0.445 µM

Question: What about the IC50 (second compound 0.1 µM) of the same compound?
Answer: 0.393 µM

Question: And the IC50 (second compound 0.316 µM)?
Answer: 0.334 µM

Question: What about the IC50 (second compound 1 µM) of the same compound?
Answer: 0.406 µM

Question: And the IC50 (second compound 3.16 µM)?
Answer: 0.402 µM

Question: What about the IC50 (second compound 10 µM) of the same compound?
Answer: 0.365 µM

Question: What about the viability, T/C [1] of the same compound?
Answer: 96.5%

Question: And the viability, T/C [2]?
Answer: 83.4%

Question: What about the viability, T/C [3] of the same compound?
Answer: 69.9%

Question: What about the viability, T/C [4] of the same compound?
Answer: 2.76%

Question: What about the viability, T/C [5] of the same compound?
Answer: 0.18%

Question: What about the viability, T/C [6] of the same compound?
Answer: 0.23%

Question: And the viability, T/C [7]?
Answer: 99.8%

Question: And the viability, T/C [8]?
Answer: 85.2%

Question: And the viability, T/C [9]?
Answer: 61.5%

Question: What about the viability, T/C [10] of the same compound?
Answer: 5.02%

Question: And the viability, T/C [11]?
Answer: 0.16%

Question: And the viability, T/C [12]?
Answer: 0.17%

Question: What about the viability, T/C [13] of the same compound?
Answer: 98.3%

Question: And the viability, T/C [14]?
Answer: 82%

Question: And the viability, T/C [15]?
Answer: 54.6%

Question: And the viability, T/C [16]?
Answer: 3.28%

Question: And the viability, T/C [17]?
Answer: 0.16%

Question: And the viability, T/C [18]?
Answer: 0.13%

Question: What about the viability, T/C [19] of the same compound?
Answer: 83.1%

Question: What about the viability, T/C [20] of the same compound?
Answer: 87.2%

Question: And the viability, T/C [21]?
Answer: 62.5%

Question: What about the viability, T/C [22] of the same compound?
Answer: 4.71%

Question: What about the viability, T/C [23] of the same compound?
Answer: 0.12%

Question: What about the viability, T/C [24] of the same compound?
Answer: 0.19%

Question: And the viability, T/C [25]?
Answer: 88.2%

Question: What about the viability, T/C [26] of the same compound?
Answer: 85.2%

Question: And the viability, T/C [27]?
Answer: 62.5%

Question: What about the viability, T/C [28] of the same compound?
Answer: 2.43%

Question: And the viability, T/C [29]?
Answer: 0.12%

Question: And the viability, T/C [30]?
Answer: 0.2%

Question: What about the viability, T/C [31] of the same compound?
Answer: 98.5%

Question: And the viability, T/C [32]?
Answer: 80.9%

Question: What about the viability, T/C [33] of the same compound?
Answer: 58.5%

Question: What about the viability, T/C [34] of the same compound?
Answer: 5.85%

Question: And the viability, T/C [35]?
Answer: 0.23%

Question: And the viability, T/C [36]?
Answer: 0.19%

Source: PubChem BioAssay AID2060510 (Molecular Pharmacology Branch, DTP, NCI, 2025)
